Reference: ChEMBL document CHEMBL1201862, “PubChem BioAssay data set” (2004)
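Exposure lasted 48 hours, with cells grown in 96-well plates and compounds tested at five concentrations. At the GI50, growth is halved.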 The source made the active and inactive calls. No stated cut-off is given here; in the data, active = GI50 up to about 1.1 µM and inactive = higher.

Legend:
Assay in all cases: NCI-60 cell line screen, 48 h
[1] = test system: A498
[2] = test system: A549
[3] = test system: OVCAR-4
[4] = test system: SF-539
[5] = test system: EKVX
[6] = test system: SF-295
[7] = test system: SK-MEL-2
[8] = test system: CAKI-1
[9] = test system: ACHN
[10] = test system: BT-549
[11] = test system: SW-620
[12] = test system: OVCAR-3
[13] = test system: COLO 205
[14] = test system: U-251
[15] = test system: MDA-N
[16] = test system: HOP-92
[17] = test system: UACC-257
[18] = test system: MDA-MB-231
[19] = test system: CCRF-CEM

Row | SMILES | GI50 [1] | GI50 [2] | GI50 [3] | GI50 [4] | GI50 [5] | GI50 [6] | GI50 [7] | GI50 [8] | GI50 [9] | GI50 [10] | GI50 [11] | GI50 [12] | GI50 [13] | GI50 [14] | GI50 [15] | GI50 [16] | GI50 [17] | GI50 [18] | GI50 [19]
1 | COc1ccc(-c2c(C#N)c(N)nc(S)c2C#N)cc1 | > 100 µM (inactive) | 48.4 µM (inactive) | > 100 µM (inactive) | 38.9 µM (inactive) | 36.1 µM (inactive) | 27.6 µM (inactive) | 36.1 µM (inactive) | 42.4 µM (inactive) | 71 µM (inactive) | 24.9 µM (inactive) | 22.2 µM (inactive) | 64.7 µM (inactive) | 30.1 µM (inactive) | 40.5 µM (inactive) | 11.5 µM (inactive) | 40.6 µM (inactive) | 44.6 µM (inactive) | 26.1 µM (inactive) | 
2 | CNc1c2cccc(C)c2nc2c(C(=O)NCCN(C)C)cccc12 | 0.213 µM (active) | 0.034 µM (active) | < 0.01 µM (active) |  | 0.151 µM (active) | 0.0586 µM (active) | 0.309 µM (active) | < 0.0344 µM (active) | < 0.024 µM (active) | 1.04 µM (active) | < 0.0288 µM (active) | 0.214 µM (active) | 0.0423 µM (active) | 0.149 µM (active) | 0.0841 µM (active) | 0.122 µM (active) | 0.211 µM (active) | < 0.0498 µM (active) | 0.0374 µM (active)
3 | CCCCCC(CO)C(O)(C(F)(F)F)C(F)(F)F (stereo not drawn) | > 10 µM (inactive) | > 10 µM (inactive) | > 10 µM (inactive) | > 10 µM (inactive) | > 10 µM (inactive) | > 10 µM (inactive) | > 10 µM (inactive) | > 10 µM (inactive) | > 10 µM (inactive) | > 10 µM (inactive) | > 10 µM (inactive) | > 10 µM (inactive) | > 10 µM (inactive) | > 10 µM (inactive) | > 10 µM (inactive) | > 10 µM (inactive) | > 10 µM (inactive) | > 10 µM (inactive) | 
4 | C/C=C1/CC(C(=O)OC)N(C(=O)OCc2ccccc2)C1=S (stereo not drawn) | > 100 µM (inactive) | > 100 µM (inactive) | > 100 µM (inactive) |  | 84.3 µM (inactive) | > 100 µM (inactive) | > 100 µM (inactive) | > 100 µM (inactive) | > 100 µM (inactive) | > 100 µM (inactive) | > 100 µM (inactive) | > 100 µM (inactive) | > 100 µM (inactive) | > 100 µM (inactive) | > 100 µM (inactive) | > 100 µM (inactive) | > 100 µM (inactive) | > 100 µM (inactive) | 
5 | Fc1ccc2c(c1)nc1n2C(c2c(Cl)cccc2Cl)SC1 (stereo not drawn) | 20.9 µM (inactive) | 14.9 µM (inactive) | 15 µM (inactive) | 18.1 µM (inactive) |  | 13.7 µM (inactive) | 15 µM (inactive) | 12.3 µM (inactive) | 16.9 µM (inactive) | 16.7 µM (inactive) | 13.2 µM (inactive) | 12.9 µM (inactive) | 16.7 µM (inactive) | 13.1 µM (inactive) | 12.1 µM (inactive) | 6.87 µM (inactive) | 13.5 µM (inactive) | 15.3 µM (inactive) | 
6 | CCc1ccc2c(c1)/C(=C1/Nc3ccccc3C1=O)C(=O)N2 | 4.13 µM (inactive) | 13.8 µM (inactive) | 7.82 µM (inactive) |  | 5.36 µM (inactive) | 20.2 µM (inactive) | 17.1 µM (inactive) | 17.2 µM (inactive) | 5.66 µM (inactive) | 25.1 µM (inactive) | 63.2 µM (inactive) | 20.6 µM (inactive) | 14.5 µM (inactive) | 13.5 µM (inactive) | 34.5 µM (inactive) | 33.3 µM (inactive) | 30.5 µM (inactive) | 34 µM (inactive) | 36.1 µM (inactive)
7 | O=C(Nc1ccc(Cl)cc1)c1cc(S(=O)(=O)Nc2n[nH]c(Nc3ccc4ccccc4c3)n2)c(SSc2cc(Cl)c(C(=O)Nc3ccc(Cl)cc3)cc2S(=O)(=O)Nc2n[nH]c(Nc3ccc4ccccc4c3)n2)cc1Cl | 23.6 µM (inactive) | 41.7 µM (inactive) | 28 µM (inactive) | 23.6 µM (inactive) | 42.9 µM (inactive) | 20.5 µM (inactive) |  | 19.1 µM (inactive) | 21.6 µM (inactive) | 24.4 µM (inactive) | 21.3 µM (inactive) | 26.2 µM (inactive) | 18.4 µM (inactive) | 23.7 µM (inactive) | 32.4 µM (inactive) | 28.2 µM (inactive) | 33.1 µM (inactive) | 18.6 µM (inactive) | 20.5 µM (inactive)
8 | CN(C)CCCSc1nc2ccccc2[nH]1 | > 100 µM (inactive) | > 100 µM (inactive) | > 100 µM (inactive) |  | > 100 µM (inactive) | > 100 µM (inactive) | > 100 µM (inactive) | > 100 µM (inactive) | > 100 µM (inactive) | > 100 µM (inactive) | > 100 µM (inactive) | > 100 µM (inactive) | > 100 µM (inactive) | > 100 µM (inactive) | > 100 µM (inactive) | > 100 µM (inactive) | > 100 µM (inactive) | > 100 µM (inactive) | 
9 | NNC(=O)C(O)C(O)C(O)CO (stereo not drawn) | > 100 µM (inactive) | > 100 µM (inactive) | > 100 µM (inactive) |  | > 100 µM (inactive) | > 100 µM (inactive) | > 100 µM (inactive) | > 100 µM (inactive) | > 100 µM (inactive) | > 100 µM (inactive) | > 100 µM (inactive) | > 100 µM (inactive) | > 100 µM (inactive) | > 100 µM (inactive) | > 100 µM (inactive) | > 100 µM (inactive) | > 100 µM (inactive) | > 100 µM (inactive) | > 100 µM (inactive)
10 | Cn1c(=O)c2c(nc3n2CCC(=O)N3CCCCl)n(C)c1=O | > 100 µM (inactive) | > 100 µM (inactive) | > 100 µM (inactive) |  | > 100 µM (inactive) | > 100 µM (inactive) | > 100 µM (inactive) |  | > 100 µM (inactive) | > 100 µM (inactive) | > 100 µM (inactive) | > 100 µM (inactive) | > 100 µM (inactive) | > 100 µM (inactive) | > 100 µM (inactive) | > 100 µM (inactive) | > 100 µM (inactive) | > 100 µM (inactive) | > 100 µM (inactive)
11 | O=C1OC(c2ccccc2)=N/C1=C\c1ccc(Cl)cc1 | > 100 µM (inactive) | > 100 µM (inactive) | > 100 µM (inactive) |  | > 100 µM (inactive) | > 100 µM (inactive) | > 100 µM (inactive) | > 100 µM (inactive) | > 100 µM (inactive) | > 100 µM (inactive) | > 100 µM (inactive) | > 100 µM (inactive) | > 100 µM (inactive) | > 100 µM (inactive) | > 100 µM (inactive) | > 100 µM (inactive) | > 100 µM (inactive) | > 100 µM (inactive) | 61.5 µM (inactive)
12 | C=C[C@@]1(C)CC[C@@H]2[C@@]3(C1)O[C@H]3CC1[C@](C)(C(=O)OC)CCC[C@@]12C (stereo partly drawn) | 32.5 µM (inactive) | 23.1 µM (inactive) | 38.5 µM (inactive) |  | 20.7 µM (inactive) | 15 µM (inactive) | 18.9 µM (inactive) | 33.5 µM (inactive) | 16.1 µM (inactive) | 25.5 µM (inactive) | 23.7 µM (inactive) | 17 µM (inactive) | 16.6 µM (inactive) | 21.1 µM (inactive) | 22.1 µM (inactive) | 16.7 µM (inactive) | 19.3 µM (inactive) | 23 µM (inactive) | 
13 | O=[N+]([O-])C(=C(N1CCOCC1)N1CCOCC1)/C(Cl)=C(\Cl)[N+](=O)[O-] | 20.2 µM (inactive) | 23.1 µM (inactive) | 16 µM (inactive) | 11.6 µM (inactive) | 8.73 µM (inactive) | 18 µM (inactive) | 15.8 µM (inactive) | 1.64 µM (inactive) | 6.31 µM (inactive) | 4.59 µM (inactive) | 2.23 µM (inactive) | 4.54 µM (inactive) | 3.18 µM (inactive) | 18.9 µM (inactive) | 9.75 µM (inactive) |  | 5.55 µM (inactive) | 3.85 µM (inactive) | 2.65 µM (inactive)
14 | CCOC(=O)c1c(N2CCOCC2)[nH]c(=O)c(C(c2ccc(Cl)c([N+](=O)[O-])c2)c2c(O)c(C(=O)OCC)c(N3CCOCC3)[nH]c2=O)c1O | > 100 µM (inactive) | > 100 µM (inactive) | 42.8 µM (inactive) | 26.5 µM (inactive) | > 100 µM (inactive) | > 100 µM (inactive) |  | 82.6 µM (inactive) | 55.1 µM (inactive) | 24.4 µM (inactive) | 23.4 µM (inactive) | 17.2 µM (inactive) | > 100 µM (inactive) | 19.6 µM (inactive) | 26.1 µM (inactive) | 23.9 µM (inactive) | 70 µM (inactive) | 15.2 µM (inactive) | 4.76 µM (inactive)
15 | CC(=O)OCC(OC(C)=O)C1C[C@H]2O[C@@H]3[C@H](C[C@H]2O1)O[C@@]1(C[C@@H]3C)C[C@H](C)[C@@H]2O[C@]3(C[C@@H]2O1)C[C@H]1O[C@H]2[C@H](C)[C@H]4OC(=O)C[C@H]5CC[C@@H]6OC7[C@H]8O[C@]9(CC[C@H]%10CC(=O)[C@H](CC[C@H]%11C[C@@H](C)C(=O)C(C[C@@H]4O[C@H]2C[C@H]1O3)O%11)O%10)CC8O[C@@H]7[C@@H](O9)[C@H]6O5 (stereo partly drawn) | > 0.434 µM (active) | 0.00501 µM (active) |  |  | 0.0201 µM (active) | 0.00242 µM (active) | 0.0481 µM (active) | 0.00515 µM (active) | 0.0627 µM (active) | 0.000553 µM (active) | 0.00438 µM (active) | 0.00319 µM (active) | 0.00281 µM (active) | 0.00506 µM (active) | 0.000321 µM (active) | 0.0611 µM (active) |  | 0.0199 µM (active) | 0.00436 µM (active)
